In US20240139142A1, “METHOD FOR PREVENTING OR TREATING LIVER DISEASE” (priority 2022, published 2024):

Legend:
[1] = system: hepatic lipid accumulation and fibrosis in HBV transgenic mouse liver; assay: Oil Red and Sirius Red staining of liver tissue; format: in vivo; details: treated mice without liver hepatocellular carcinoma vs control group
[2] = system: liver hepatocellular carcinoma cell line SNU-449; assay: MTS analysis, growth inhibition (GI50); format: cell-based
[3] = system: SNU-449 liver hepatocellular carcinoma cell line; assay: Expression of ABCC2, Twist and Mcl-1 after treatment; format: cell-based; details: 2.5 μM, 64 hours
From the text: (§1) The process of trans-differentiating epithelial cells into motile mesenchymal cells is called epithelial-mesenchymal transition (EMT). EMT is indispensable in development, wound healing and stem cell behavior, and may induce fibrosis and carcinogenesis pathologically. In addition, EMT plays an important role in liver fibrosis, liver cirrhosis and liver hepatocellular carcinoma. […] Moreover, EMT may increase the anti-apoptosis effect, which will result in the development of drug resistance in cancer treatment, and induce the development of stemness of the cancer cells, as well as increase the number of cancer stem cells. The cancer stem cell is one of the important factors in the progression, recurrence, metastasis and drug resistance of the cancer. There is an evidence that in the samples of the liver hepatocellular carcinoma patients with poor prognosis, the overexpressions of Twist and Snail were observed. […] The results above represent that isothiocyanate structural modified compound of the present disclosure may prevent liver carcinogenesis and the growth, invasion, metastasis, progression and recurrence of liver hepatocellular carcinoma via inhibiting epithelial-mesenchymal transition, anti-apoptosis and/or inhibiting drug resistance.

[4] = system: Mahlavu liver hepatocellular carcinoma cell line; assay: as above; format: cell-based; details: 2.5 μM, 64 hours
From the text: as §1

[5] = system: liver hepatocellular carcinoma cell line Mahlavu; assay: MTS analysis, growth inhibition (GI50); format: cell-based; details: read-out: GI50, Mahlavu liver hepatocellular carcinoma cell line
[6] = system: liver hepatocellular carcinoma cell line SNU-449; assay: MTS assay cell growth, selectivity test; format: cell-based
[7] = Safety test, median lethal dose (LD50), intravenous injection; format: in vivo; details: in vivo, mouse
Experimental: (§2) The mouse xenograft model of liver hepatocellular carcinoma was administered with different concentrations of PCH1152 or P1130 via intravenous injection, and the median lethal dose (LD50) was calculated by the number of death and dosage.

[8] = system: mouse xenograft model of liver hepatocellular carcinoma; assay: as above; format: in vivo
Experimental: as §2

[9] = system: human normal liver cell line THLE-2; assay: Western blot, apoptosis and ABCC2/Mcl-1/Twist expression; format: cell-based; details: low concentration
[10] = system: liver hepatocellular carcinoma cell line with Nexavar drug resistance; assay: Protein expression and apoptosis in drug-resistant cell line; format: cell-based
From the text: WT: wild-type liver hepatocellular carcinoma cell line. R: Nexavar-drug resistance-liver hepatocellular carcinoma cell line.
After treating liver hepatocellular carcinoma cell line with Nexavar drug resistance by PCH1130 or PCH1152, the expressions of molecules such as USP22, ABCC1, ABCC2 and Twist in liver hepatocellular carcinoma may be decreased, and the expressions of cleaved Caspase-8 and PARP may be increased, which induced the apoptosis of liver hepatocellular carcinoma cells.

[11] = format: physicochemical; details: after 16 days
[12] = system: SNU-449 liver hepatocellular carcinoma cell line; assay: Western blot, apoptosis and ABCC2/Mcl-1/Twist expression; format: cell-based; details: low concentration
[13] = system: liver tumor in Hepatitis B virus (HBV) transgenic mouse; format: in vivo
Experimental: To examine the incidence rate of mouse liver tumor under long-term PCH1152 administration, PCH1152 was added into the drinking water of the mice when the mice were three-month-old, and the drinking water was replaced every 7 to 14 days. The termination of the experiment was set at 19 months, and the blood of the mice started to be collected every 2 to 3 months when the mice were 9-month-old, and the ALT values of the serum were measured. When the ALT of the serum were higher than 150 U/L twice in a row, the mice were sacrificed and the developments of the liver tumors thereof were observed.

[14] = system: Mahlavu liver hepatocellular carcinoma cell line subcutaneous tumor; assay: Mouse xenograft model, oral PCH1152; format: in vivo, nude mice; details: 0.6 mg/mouse/day orally
Experimental: Seven days after subcutaneously injecting 1×10^6 Mahlavu liver hepatocellular carcinoma cell line into nude mice, PCH1152 (0.6 mg/mouse/day) began to be orally administered to the mice. After continuously administrating the drug orally for 45 days, the mice were sacrificed and their subcutaneous tumor were taken and analyzed.

[15] = system: SNU-449 liver hepatocellular carcinoma cell line; assay: Western blot of apoptosis markers (cleaved caspase 8, cleaved PARP); format: cell-based; details: 0.3 μM, 0, 24, 48 and 72 hours
Experimental: SNU-449 liver hepatocellular carcinoma cell line was treated by 0.3 μM isothiocyanate structural modified compounds P1130 and PCH1152, and natural isothiocyanate compound PEITC, and the control group was treated by DSMO. After extracting the proteins in the cells at different time points, such as 0, 24, 48 and 72 hours, analysis and comparison were performed by using western blot. […] The results represent that the two structural modified compounds described above effectively promoted the apoptosis of the liver hepatocellular carcinoma cells (FIG. 1).

[16] = system: Hepatitis B virus-induced ROS in Huh-7 cells; assay: Removal of HBV-induced ROS, DHE fluorescence; format: cell-based, human; details: Huh-7 transfected with pGEM C12, 5 μM PCH1152, 10 μM NAC
Experimental: To examine the effect of PCH1152, NAC or the combination thereof on removing HBV-induced ROS, the Huh-7 cells were remained untreated, or treated with 5 μM PCH1152, 10 μM NAC or 5 μM PCH 1152 plus 10 μM NAC. The ROS was examined by DHE fluorescence, and the difference between each group was compared by Tukey's Multiple Comparison Test.

[17] = system: human normal liver cell line THLE-2; assay: MTS assay cell growth, selectivity test; format: cell-based
From the text: Preferable small molecule anticancer drugs must have higher selectivity to cancer cells, thereby reducing the toxicity and side effects in the normal cells and the dosage being taken. The selectivity of isothiocyanate structural modified compound of the present disclosure to liver hepatocellular carcinoma cells was examined by using human normal liver cell line THLE-2 and liver hepatocellular carcinoma cell line SNU-449. After treating liver hepatocellular carcinoma cell line and normal liver cell line by isothiocyanate structural modified compounds P1130 or PCH1152, the cell growth was evaluated by MTS assay.

[18] = system: Antimycin A-induced ROS in LX-2 cells; assay: Removal of Antimycin A-induced ROS, DHE fluorescence; format: cell-based; details: 2.5 μM PCH1152, 24 hours
From the text: ROS was examined by DHE fluorescence, and the difference between each group was compared by Tukey's Multiple Comparison Test.

[19] = system: P62 and LC3B in HBV transgenic mouse liver tissue; assay: Autophagy markers in liver tissue, western blot; format: in vivo
Experimental: The liver tissues of the mice with or without liver hepatocellular carcinoma in the example 7 were analyzed by western blot (FIG. 8A), and quantitative analysis was performed via Image J software (FIG. 8B). P62 protein accumulated in the cells when the autophagy was forbidden, and it was degraded when the autophagy started-up. Therefore, P62 protein may be a biomarker of autophagy. […] Moreover, LC3B protein is the subunit of the microtubule-related protein, which has different protein isomers. After the autophagy being started, LC3B I isomer will be transformed into LC3B II isomer. […] The results above indicate that PCH1152 may enhance autophagy, i.e. may inhibit abnormal “anti-autophagy” effect, thereby preventing the development of liver hepatocellular carcinoma. **p<0.01; ***p<0.001; unpaired t-test.

[20] = long-term treatment in drinking water

## Oc1ccc(CCN=C=S)cc1 [PCH1152]
[1]; Oil Red
  region of the lipid accumulation in liver tissue: reduced significantly
[1]; Sirius Red
  region of fibrosis in liver tissue: reduced significantly
[2]; Homo sapiens, SNU-449, read-out: GI50, SNU-449 liver hepatocellular carcinoma cell line
  GI50: 0.89 µM
[2]; compared to natural isothiocyanate compounds BITC or PEITC
  increase of the ability of inhibiting the growth of the liver hepatocellular carcinoma cell line: 12 times
[3]
  expressions of ABCC2, Twist and Mcl-1: inhibition
[4]
  expressions of ABCC2, Twist and Mcl-1: inhibition
[5]
  GI50: 1.54 µM
[6]; MTS assay, SNU-449
  cell viability of liver hepatocellular carcinoma cell line: substantially decreased
[6]; SNU-449 vs THLE-2, MTS assay
  selectivity between liver hepatocellular carcinoma cell and normal liver cell: better cell growth inhibition selectivity
[7]
  LD50: 30 to 100 mg/kg
[8]
  toxicity relative to existing anticancer drug, e.g. Taxotere: comparable
[9]
  apoptosis promotion and inhibition of ABCC2, Mcl-1, Twist in human normal liver cell line: no such effect
[10]
  effect on drug resistance in liver hepatocellular carcinoma: reversing the drug resistance
  expressions of USP22, ABCC1, ABCC2 and Twist: decreased
  expressions of cleaved Caspase-8 and PARP: increased
[11]
  structural stability in the drinking water of the mice: higher than 98%
[12]
  apoptosis of liver hepatocellular carcinoma cell line: promote apoptosis
  expressions of ABCC2, Mcl-1 and Twist: inhibit the expressions
[13]; compared to control group
  reduction of the incidence rate of liver tumor: more than 30%
[13]; control group 19.5-month old
  age at which serum ALT increased to over 150 U/L in 50% of the mice: 21 month old
[13]; long-term treatment
  volume of the liver tumor: significantly decrease
  weight of the liver tumor: significantly decrease
[13]; [20]
  impact on daily food intake: did not have any significant impact
  impact on daily water intake: did not have any significant impact
  impact on weight: did not have any significant impact
[14]; 45 days
  death of mice during the experiment: No mouse dead
  effect on daily food intake: did not have any significant effect
  effect on mouse weight: did not have any significant effect
  value of ALT in the mouse: decrease
[14]; 45 days, vs control group
  subcutaneous tumor volume: significantly smaller
[14]; western blot
  expressions of ABCC1, USP22 and Mcl-1 in subcutaneous tumor: significant lower
[15]
  expression levels of cleaved caspase 8 and cleaved PARP: significantly increased
[16]
  HBV-induced ROS increasement: significantly reduce
[17]
  effect on cell viability of human normal liver cell line: not significant
[18]
  Antimycin A-induced ROS increasement: significantly reduce
[19]; liver tissue
  effect on autophagy: significantly enhance autophagy
[19]; treated mouse without carcinoma vs mouse developing carcinoma, western blot
  P62 protein in liver tissue (ratio of P62 and Hsc70): significantly lower
[19]; vs control group, western blot
  ratio of LC3B II and LC3B I: higher
